Key:
PIK3CD (Human) = PIK3CD (Human) (UniProt O00329); assay: Inhibition of PIK3CD Kinase Activity
PIK3CA (human) = PIK3CA (human) (UniProt P42336); assay: Inhibition of PIK3CA Kinase Activity
PIK3CB (Human) = PIK3CB (Human) (UniProt P42338); assay: Inhibition of PIK3CB Kinase Activity
PIK3CG (human) = PIK3CG (human) (UniProt P48736); assay: Inhibition of PIK3CG Kinase Activity
PIK3CG (human), sequence (P48736 whole entry, looked up): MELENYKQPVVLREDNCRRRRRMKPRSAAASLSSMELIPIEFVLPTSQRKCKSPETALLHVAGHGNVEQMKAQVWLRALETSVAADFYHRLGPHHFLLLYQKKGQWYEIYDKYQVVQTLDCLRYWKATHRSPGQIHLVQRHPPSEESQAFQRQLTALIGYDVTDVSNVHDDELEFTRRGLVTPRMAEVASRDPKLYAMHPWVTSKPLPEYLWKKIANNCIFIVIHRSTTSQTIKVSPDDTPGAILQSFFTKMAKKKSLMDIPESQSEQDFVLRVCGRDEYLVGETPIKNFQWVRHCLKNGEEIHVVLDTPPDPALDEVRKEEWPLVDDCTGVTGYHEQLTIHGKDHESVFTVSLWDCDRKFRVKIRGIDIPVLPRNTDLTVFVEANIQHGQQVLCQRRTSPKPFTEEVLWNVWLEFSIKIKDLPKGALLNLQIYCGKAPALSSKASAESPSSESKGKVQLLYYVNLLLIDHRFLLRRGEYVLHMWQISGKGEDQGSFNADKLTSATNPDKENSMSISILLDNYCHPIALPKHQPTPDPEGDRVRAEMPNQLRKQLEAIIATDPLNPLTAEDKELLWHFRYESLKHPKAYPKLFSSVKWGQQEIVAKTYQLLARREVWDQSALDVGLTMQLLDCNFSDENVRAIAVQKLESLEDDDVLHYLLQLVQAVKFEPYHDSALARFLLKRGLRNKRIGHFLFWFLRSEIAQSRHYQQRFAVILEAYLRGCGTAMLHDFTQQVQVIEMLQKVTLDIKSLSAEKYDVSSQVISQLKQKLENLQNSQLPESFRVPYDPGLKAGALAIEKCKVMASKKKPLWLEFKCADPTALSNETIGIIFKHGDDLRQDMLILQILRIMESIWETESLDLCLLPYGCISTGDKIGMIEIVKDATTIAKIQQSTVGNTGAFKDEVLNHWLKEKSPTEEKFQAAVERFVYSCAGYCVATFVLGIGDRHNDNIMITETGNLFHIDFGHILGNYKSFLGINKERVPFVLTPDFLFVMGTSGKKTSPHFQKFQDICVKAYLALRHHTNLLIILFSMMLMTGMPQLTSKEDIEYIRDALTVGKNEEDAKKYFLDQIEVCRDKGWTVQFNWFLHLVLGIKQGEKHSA

PIK3CD (Human), sequence (O00329 whole entry, looked up): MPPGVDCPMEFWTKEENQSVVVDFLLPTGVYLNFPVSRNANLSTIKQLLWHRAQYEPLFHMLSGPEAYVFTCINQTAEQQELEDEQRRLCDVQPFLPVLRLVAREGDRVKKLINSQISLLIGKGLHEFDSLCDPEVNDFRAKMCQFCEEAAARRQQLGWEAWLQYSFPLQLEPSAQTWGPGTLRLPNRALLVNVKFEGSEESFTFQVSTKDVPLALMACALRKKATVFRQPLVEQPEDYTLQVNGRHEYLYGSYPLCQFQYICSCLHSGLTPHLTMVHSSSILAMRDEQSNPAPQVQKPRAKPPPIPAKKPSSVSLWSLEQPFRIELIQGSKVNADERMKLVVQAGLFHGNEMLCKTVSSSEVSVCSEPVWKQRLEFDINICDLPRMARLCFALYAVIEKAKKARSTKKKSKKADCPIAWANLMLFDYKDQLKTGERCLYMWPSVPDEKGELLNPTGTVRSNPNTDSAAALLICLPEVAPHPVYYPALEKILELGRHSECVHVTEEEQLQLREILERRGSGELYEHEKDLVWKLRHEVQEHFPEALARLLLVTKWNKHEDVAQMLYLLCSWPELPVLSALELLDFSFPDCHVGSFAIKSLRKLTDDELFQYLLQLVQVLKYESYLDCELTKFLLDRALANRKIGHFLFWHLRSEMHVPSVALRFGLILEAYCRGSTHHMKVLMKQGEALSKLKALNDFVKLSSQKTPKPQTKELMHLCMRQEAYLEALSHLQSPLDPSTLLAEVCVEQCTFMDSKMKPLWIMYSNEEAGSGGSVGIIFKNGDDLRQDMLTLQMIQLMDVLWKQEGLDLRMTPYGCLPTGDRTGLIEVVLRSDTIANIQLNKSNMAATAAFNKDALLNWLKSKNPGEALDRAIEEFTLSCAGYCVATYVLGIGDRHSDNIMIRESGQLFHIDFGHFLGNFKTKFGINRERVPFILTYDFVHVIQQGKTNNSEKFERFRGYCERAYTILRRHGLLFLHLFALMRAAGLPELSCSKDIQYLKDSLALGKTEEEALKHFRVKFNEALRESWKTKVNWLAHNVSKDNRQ
PIK3CB (Human), sequence (P42338 whole entry, looked up): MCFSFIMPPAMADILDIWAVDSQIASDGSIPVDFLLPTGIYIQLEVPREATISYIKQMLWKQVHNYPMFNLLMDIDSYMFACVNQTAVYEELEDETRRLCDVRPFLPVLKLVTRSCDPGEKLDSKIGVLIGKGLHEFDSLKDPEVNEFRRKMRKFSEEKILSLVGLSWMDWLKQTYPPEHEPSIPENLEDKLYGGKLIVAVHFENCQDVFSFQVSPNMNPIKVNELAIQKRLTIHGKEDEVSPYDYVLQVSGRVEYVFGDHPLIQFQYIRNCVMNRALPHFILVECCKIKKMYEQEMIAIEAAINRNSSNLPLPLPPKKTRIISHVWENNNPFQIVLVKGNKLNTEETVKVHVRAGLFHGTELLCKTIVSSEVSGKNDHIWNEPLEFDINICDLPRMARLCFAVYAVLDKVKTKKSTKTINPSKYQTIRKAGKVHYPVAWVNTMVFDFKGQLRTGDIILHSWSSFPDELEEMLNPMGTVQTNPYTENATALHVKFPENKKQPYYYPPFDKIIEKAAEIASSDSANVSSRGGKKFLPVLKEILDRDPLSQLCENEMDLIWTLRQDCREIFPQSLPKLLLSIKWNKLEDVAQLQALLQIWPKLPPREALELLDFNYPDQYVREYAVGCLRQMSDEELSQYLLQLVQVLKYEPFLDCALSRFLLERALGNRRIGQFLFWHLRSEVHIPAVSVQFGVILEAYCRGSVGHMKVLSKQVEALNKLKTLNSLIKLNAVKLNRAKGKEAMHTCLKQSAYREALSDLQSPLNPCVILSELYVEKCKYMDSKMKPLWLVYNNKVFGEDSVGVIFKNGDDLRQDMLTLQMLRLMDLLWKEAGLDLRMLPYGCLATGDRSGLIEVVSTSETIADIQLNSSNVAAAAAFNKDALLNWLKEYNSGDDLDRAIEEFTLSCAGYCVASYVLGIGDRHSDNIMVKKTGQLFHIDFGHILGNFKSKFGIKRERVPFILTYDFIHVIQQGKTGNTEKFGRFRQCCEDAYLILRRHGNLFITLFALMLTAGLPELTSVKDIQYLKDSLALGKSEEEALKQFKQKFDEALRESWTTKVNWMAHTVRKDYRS
PIK3CA (human), sequence (P42336 whole entry, looked up): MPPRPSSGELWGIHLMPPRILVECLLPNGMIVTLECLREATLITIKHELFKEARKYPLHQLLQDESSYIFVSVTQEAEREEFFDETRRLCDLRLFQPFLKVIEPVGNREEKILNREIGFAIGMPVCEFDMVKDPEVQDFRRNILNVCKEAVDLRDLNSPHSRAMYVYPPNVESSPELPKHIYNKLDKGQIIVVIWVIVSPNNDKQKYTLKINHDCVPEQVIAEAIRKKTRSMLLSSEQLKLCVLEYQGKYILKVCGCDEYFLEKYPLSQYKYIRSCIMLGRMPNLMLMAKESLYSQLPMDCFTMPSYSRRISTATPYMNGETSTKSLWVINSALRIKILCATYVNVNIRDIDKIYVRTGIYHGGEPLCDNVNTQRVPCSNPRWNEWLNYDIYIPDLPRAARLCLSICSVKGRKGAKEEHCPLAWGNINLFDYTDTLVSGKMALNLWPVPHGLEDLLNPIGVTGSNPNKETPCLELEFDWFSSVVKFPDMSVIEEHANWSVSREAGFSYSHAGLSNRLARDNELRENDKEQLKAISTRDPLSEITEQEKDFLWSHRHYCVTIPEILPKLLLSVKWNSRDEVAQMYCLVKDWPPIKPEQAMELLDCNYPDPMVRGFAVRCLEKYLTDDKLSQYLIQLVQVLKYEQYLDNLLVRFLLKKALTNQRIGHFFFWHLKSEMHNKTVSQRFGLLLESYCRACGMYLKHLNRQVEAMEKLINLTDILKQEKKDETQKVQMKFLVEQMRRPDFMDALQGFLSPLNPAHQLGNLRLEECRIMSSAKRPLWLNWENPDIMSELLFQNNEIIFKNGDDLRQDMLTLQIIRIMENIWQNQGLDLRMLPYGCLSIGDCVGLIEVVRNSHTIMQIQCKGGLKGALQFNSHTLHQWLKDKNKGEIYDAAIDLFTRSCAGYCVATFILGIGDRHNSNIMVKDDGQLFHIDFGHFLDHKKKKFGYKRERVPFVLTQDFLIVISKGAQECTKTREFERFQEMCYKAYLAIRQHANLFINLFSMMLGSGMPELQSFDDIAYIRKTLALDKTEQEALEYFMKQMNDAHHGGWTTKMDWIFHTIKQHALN

Row | Structure (SMILES) | IC50 (PIK3CD (Human)) | IC50 (PIK3CA (human)) | IC50 (PIK3CB (Human)) | IC50 (PIK3CG (human))
1 | CC(=O)Nc1nc2ccc(-c3ccc(C)c(S(C)(=O)=O)c3)cc2s1 | < 1 µM |  |  | 
2 | CC(=O)Nc1nc2ccc(-c3cc(C(F)(F)F)cc(S(=O)(=O)NCCO)c3)cc2s1 |  | > 20 µM |  | 
3 | CC(=O)Nc1nc2ccc(-c3cccc(S(=O)(=O)N4CCN(C)C(=O)C4)c3)cc2s1 |  | < 1 µM |  | 
4 | CS(=O)(=O)c1cccc(-c2ccc3nc(NC=O)sc3c2)c1 |  |  | > 20 µM | 
5 | CC(=O)Nc1cn2cc(-c3cccc(S(C)(=O)=O)c3)ccc2n1 | < 1 µM | < 1 µM |  | 
6 | CC(=O)Nc1nc2ccc(-c3cccc(C(=O)NCCO)c3)cc2s1 |  |  | > 20 µM | 
7 | CCC(=O)Nc1nc2ccc(-c3cccc(S(C)(=O)=O)c3)cc2s1 | < 1 µM |  |  | 
8 | CS(=O)(=O)c1cccc(-c2ccc3nc(NC(=O)NCCc4noc(-c5ccccc5)n4)sc3c2)c1 |  |  |  | > 20 µM
9 | CC(=O)Nc1nc2ccc(-c3cccc(S(=O)(=O)NC4CCCN(C(=O)OC(C)(C)C)C4)c3)cc2s1 (centres undefined) |  | < 1 µM |  | 
10 | CC(C)c1noc(CCNC(=O)Nc2nc3ccc(-c4cccc(S(=O)(=O)N(C)C)c4)cc3s2)n1 |  | > 20 µM |  | 
11 | COc1cc(-c2ccc3nc(NC(=O)NCCC(=O)OC(C)(C)C)sc3c2)ccc1O |  |  |  | < 1 µM
12 | CC(=O)Nc1nc2ccc(-c3cccc(S(=O)(=O)NC(CO)CO)c3)cc2s1 | < 1 µM | < 1 µM |  | < 1 µM
13 | CC(=O)Nc1nc2ccc(-c3cncc(S(=O)(=O)N(C)C)c3)cc2s1 | < 1 µM | < 1 µM | < 1 µM | < 1 µM
14 | CC(=O)Nc1nc2ccc(-c3cccc(S(C)(=O)=O)n3)cc2s1 | < 1 µM | < 1 µM | > 20 µM | 
15 | CCNS(=O)(=O)c1cccc(-c2ccc3nc(NC(C)=O)sc3c2)c1 | < 1 µM | < 1 µM |  | < 1 µM
16 | CC(C)(C)OC(=O)CCNC(=O)Nc1nc2ccc(-c3cccc(S(C)(=O)=O)c3)cc2s1 | > 20 µM | > 20 µM | < 1 µM | < 1 µM
17 | CC(C)n1nnc(CCNC(=O)Nc2nc3ccc(-c4cccc(S(C)(=O)=O)c4)cc3s2)n1 |  |  |  | < 1 µM
18 | CC(=O)Nc1nc2ccc(-c3cncc(S(N)(=O)=O)c3)cc2s1 | < 1 µM | < 1 µM | < 1 µM | < 1 µM
19 | CC(=O)Nc1nc2ccc(-c3cccc(S(=O)(=O)N(CCO)CCO)c3)cc2s1 | < 1 µM | < 1 µM |  | < 1 µM
20 | CC(C)c1noc(CCNC(=O)Nc2nc3ccc(-c4cccc(S(=O)(=O)NCCO)c4)cc3s2)n1 |  |  | < 1 µM | < 1 µM

Row | Structure (SMILES) | IC50 (PIK3CD (Human)) | IC50 (PIK3CA (human)) | IC50 (PIK3CB (Human)) | IC50 (PIK3CG (human))
21 | CC(C)(C)OCCCNC(=O)Nc1nc2ccc(-c3cccc(S(C)(=O)=O)c3)cc2s1 | > 20 µM | > 20 µM |  | 
22 | CC(=O)Nc1nc2ccc(-c3cccc(C(N)=O)c3)cc2s1 |  |  |  | < 1 µM
23 | CC(=O)Nc1cn2nc(-c3cccc(S(C)(=O)=O)c3)ccc2n1 | < 1 µM | < 1 µM |  | < 1 µM
24 | CN(C)C(=O)CNC(=O)Nc1nc2ccc(-c3cccc(S(C)(=O)=O)c3)cc2s1 | < 1 µM | < 1 µM |  | < 1 µM
25 | CS(=O)(=O)c1cccc(-c2ccc3nc(NC(=O)c4ccco4)sc3c2)c1 | > 20 µM | > 20 µM |  | 
26 | COC(=O)c1cccc(-c2ccc3nc(NC(C)=O)sc3c2)c1 |  |  |  | > 20 µM
27 | CC(=S)Nc1cn2nc(-c3cccc(S(C)(=O)=O)c3)ccc2n1 | < 1 µM | < 1 µM |  | < 1 µM
28 | CC(=O)Nc1nc2ccc(-c3cccc(S(=O)(=O)NC4CCCNC4)c3)cc2s1 (centres undefined) | < 1 µM | < 1 µM |  | < 1 µM
29 | COc1cc(-c2ccc3nc(NC(=O)NCCc4nc(C(C)C)no4)sc3c2)ccc1O |  |  | < 1 µM | 
30 | CC(=O)Nc1nc2ccc(-c3cccc(S(=O)(=O)NCC(O)CO)c3)cc2s1 (centres undefined) | < 1 µM | < 1 µM |  | < 1 µM
31 | CC(=O)Nc1nc2ccc(-c3cccc(S(=O)(=O)NCCN4CCOCC4)c3)cc2s1 | < 1 µM | < 1 µM |  | < 1 µM
32 | CC(=O)Nc1nc2ccc(-c3cccc(S(=O)(=O)N4CCCC(NC(=O)OC(C)(C)C)C4)c3)cc2s1 (centres undefined) |  | < 1 µM |  | 
33 | CC(C)n1cnc(CCNC(=O)Nc2nc3ccc(-c4cccc(S(C)(=O)=O)c4)cc3s2)c1 |  |  | < 1 µM | < 1 µM
34 | COc1cccc(-c2ccc3nc(NC(C)=O)sc3c2)c1 | > 20 µM |  |  | 
35 | CC(=O)Nc1nc2ccc(-c3ccc(Cl)c(S(=O)(=O)NCCO)c3)cc2s1 | < 1 µM | < 1 µM |  | < 1 µM
36 | CC(=O)Nc1cn2nc(-c3cccc(S(=O)(=O)NCCO)c3)ccc2n1 | < 1 µM | < 1 µM |  | < 1 µM
37 | CC(=O)Nc1nc2ccc(-c3cccc(S(=O)(=O)NCCCO)c3)cc2s1 | < 1 µM | < 1 µM |  | < 1 µM
38 | CS(=O)(=O)c1cccc(-c2ccc3nc(NC(=O)C(=O)N4CCCC4)sc3c2)c1 | < 1 µM |  |  | 
39 | CC(=O)Nc1nc2ccc(-c3cccc(S(=O)(=O)CCCO)c3)cc2s1 | < 1 µM | < 1 µM |  | 
40 | CC(=O)Nc1nc2ccc(-c3cccc(S(=O)(=O)N4CCCC(N)C4)c3)cc2s1 (centres undefined) | < 1 µM | < 1 µM | < 1 µM | < 1 µM

Second part, the molecule after the results:

Row | IC50 (PIK3CD (Human)) | IC50 (PIK3CA (human)) | IC50 (PIK3CB (Human)) | IC50 (PIK3CG (human)) | Structure (SMILES)
41 | < 1 µM |  | < 1 µM | < 1 µM | CS(=O)(=O)c1cccc(-c2ccc3nc(NC(=O)NCCC(=O)N4CCCC4)sc3c2)c1
42 | < 1 µM | < 1 µM |  | < 1 µM | CC(=O)Nc1nc2ccc(-c3cccc(S(=O)(=O)N4CCCC(O)C4)c3)cc2s1 (centres undefined)
43 |  |  |  | < 1 µM | CC(=O)Nc1nc2ccc(-c3ccncc3)cc2s1
44 | < 1 µM | < 1 µM |  | < 1 µM | CS(=O)(=O)c1cccc(-c2ccc3nc(NC(=O)NCC(=O)N4CCOCC4)sc3c2)c1
45 | < 1 µM | < 1 µM |  | < 1 µM | CC(=O)Nc1nc2ccc(-c3cccc(S(=O)(=O)NC4CCCOC4)c3)cc2s1 (centres undefined)
46 |  |  | < 1 µM | < 1 µM | CCOC(=O)CCNC(=O)Nc1nc2ccc(-c3cccc(S(C)(=O)=O)c3)cc2s1
47 | < 1 µM | < 1 µM |  | < 1 µM | CC(=O)Nc1nc2ccc(-c3cccc(S(C)(=O)=O)c3)cc2s1
48 |  | < 1 µM |  | < 1 µM | CC(=O)Nc1nc2ccc(-c3cccc(S(=O)(=O)N4CCOCC4)c3)cc2s1
49 | < 1 µM | < 1 µM | < 1 µM | < 1 µM | COc1cc(-c2ccc3nc(NC(=O)NCC(=O)N4CCOCC4)sc3c2)ccc1O
50 | < 1 µM | < 1 µM |  | < 1 µM | CC(=O)Nc1nc2ccc(-c3cccc(S(=O)(=O)N4CCC(O)CC4)c3)cc2s1
51 | < 1 µM | < 1 µM | < 1 µM | < 1 µM | COc1cc(-c2ccc3nc(NC(C)=O)sc3c2)ccc1O
52 |  |  |  | < 1 µM | CC(=O)Nc1nc2ccc(-c3ccc(O)c(F)c3)cc2s1
53 | < 1 µM | < 1 µM |  | < 1 µM | CC(=O)Nc1nc2ccc(-c3cccc(S(N)(=O)=O)c3)cc2s1
54 | < 1 µM |  |  | < 1 µM | CC(=O)Nc1nc2ccc(-c3cccc(S(=O)(=O)CCO)c3)cc2s1
55 |  |  |  | < 1 µM | CC(=O)Nc1nc2ccc(-c3cccc(NS(=O)(=O)N(C)C)c3)cc2s1
56 | < 1 µM | < 1 µM | < 1 µM | < 1 µM | CC(=O)Nc1nc2ccc(-c3cccc(S(=O)(=O)NCCO)c3)cc2s1
57 |  |  | < 1 µM | < 1 µM | CS(=O)(=O)c1cccc(-c2ccc3nc(NC(=O)NCCC(=O)N4CCOCC4)sc3c2)c1
58 | < 1 µM | < 1 µM | < 1 µM | < 1 µM | COc1cc(-c2ccc3nc(NC(C)=O)cn3n2)ccc1O
59 |  | > 20 µM | < 1 µM | < 1 µM | CN(C)S(=O)(=O)c1cccc(-c2ccc3nc(NC(=O)NCCC(=O)OC(C)(C)C)sc3c2)c1
60 |  | < 1 µM |  | < 1 µM | CC(=O)Nc1nc2ccc(-c3cccc(S(=O)(=O)N(C)C)c3)cc2s1
61 | < 1 µM | < 1 µM | < 1 µM | < 1 µM | CC(=O)Nc1nc2ccc(-c3cccc(S(=O)(=O)N(C)CCO)c3)cc2s1
62 | < 1 µM | < 1 µM |  | < 1 µM | CC(=O)Nc1nc2ccc(-c3cccc(NS(C)(=O)=O)c3)cc2s1
63 | < 1 µM | < 1 µM |  | < 1 µM | COCCNS(=O)(=O)c1cccc(-c2ccc3nc(NC(C)=O)sc3c2)c1
64 |  |  | < 1 µM | < 1 µM | CC(C)(C)OC(=O)CCNC(=O)Nc1nc2ccc(-c3cccc(S(=O)(=O)NCCO)c3)cc2s1
